Values joined by “and” are separate entries in the source; they are usually repeats but may differ in a detail not shown here. Equal entries are not always repeated. Where two headings read alike, the source gives them in different places.
How the values were obtained:
[1] = set-up: method as in PMID 24795799; settings: cited from earlier work
[2] = set-up: method as in PMID 23159469; settings: among berberine, coptisine, palmatine and epiberberine; in vitro and in vivo assays; cited from earlier work
H. pylori urease (HPU) [3] = target: T1, H. pylori urease (HPU) (Helicobacter pylori, UniProt P69996); assay: Inhibition kinetic study (Lineweaver-Burk plots); assay type: biochemical; settings: for Lineweaver-Burk plot raw value (reciprocal velocity): Fig 3A HPU
T1 construct: HPU was prepared as previously described; made in house
T1 sequence (P14916 whole entry): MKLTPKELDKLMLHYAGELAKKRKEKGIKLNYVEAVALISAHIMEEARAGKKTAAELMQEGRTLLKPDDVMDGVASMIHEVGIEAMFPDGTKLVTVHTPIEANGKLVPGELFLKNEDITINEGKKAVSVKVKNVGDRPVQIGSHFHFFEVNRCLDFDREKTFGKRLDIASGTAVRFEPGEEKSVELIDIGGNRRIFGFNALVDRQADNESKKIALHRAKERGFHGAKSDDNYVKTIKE
T1 sequence (P69996 whole entry): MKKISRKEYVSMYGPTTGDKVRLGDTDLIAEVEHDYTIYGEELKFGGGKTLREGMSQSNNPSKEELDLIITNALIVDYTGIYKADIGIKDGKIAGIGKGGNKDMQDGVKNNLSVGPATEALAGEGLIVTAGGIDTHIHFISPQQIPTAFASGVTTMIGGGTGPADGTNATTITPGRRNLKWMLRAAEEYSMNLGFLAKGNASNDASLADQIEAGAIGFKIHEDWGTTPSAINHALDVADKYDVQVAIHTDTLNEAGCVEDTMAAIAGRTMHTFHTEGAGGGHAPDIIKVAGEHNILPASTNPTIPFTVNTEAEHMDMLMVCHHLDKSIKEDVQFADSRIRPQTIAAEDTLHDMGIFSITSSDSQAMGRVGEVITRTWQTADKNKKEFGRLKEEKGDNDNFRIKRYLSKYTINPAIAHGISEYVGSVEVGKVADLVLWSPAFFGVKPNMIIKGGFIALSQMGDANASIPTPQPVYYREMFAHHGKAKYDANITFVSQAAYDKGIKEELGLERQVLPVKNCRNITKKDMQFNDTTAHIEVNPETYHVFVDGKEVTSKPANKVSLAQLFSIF
Description: Michaelis constant KM and the maximum velocity vmax values were evaluated by means of Lineweaver—Burk plots, using the initial velocities at different urea concentrations ([…]), in the absence or presence of 1.00, 0.50, and 0.25 mM Pal. The concentrations of HPU and JBU were both 0.25 mg/mL in the assays. The values were obtained by applying nonlinear regression to the Michaelis-Menten equation. All experiments were performed in triplicate.

H. pylori urease (HPU) [4] = target: T1, H. pylori urease (HPU); assay: biochemical; assay type: biochemical; settings: for activity at 500 µM: read-out: Urease activity, Fig 6A HPU, Pal 0.5 mM, DTT 1.25 mM
Description: (§1) The reactivation of Pal-inactivated urease was investigated by DTT application. The preincubation mixture consisted of 0.25 mg/mL HPU or JBU and 0.5 mM Pal in 20 mM HEPES buffer (pH 7.5). Then the mixture was further incubated with 1.25 mM DTT after 20 min. The enzymatic activity of urease was determined before and after the addition of DTT. After a while, aliquots were withdrawn and the urease residual activity was determined. The experiments were repeated three times.

jack bean urease (JBU) [5] = target: T2, jack bean urease (JBU) (Canavalia ensiformis, UniProt P07374); assay: biochemical; assay type: biochemical; settings: for activity at 500 µM: read-out: Urease activity, Fig 6B JBU, Pal 0.5 mM, DTT 1.25 mM
T2 construct: Urease from jack bean (Canavalia ensiformis, JBU); purchased Sigma-Aldrich (St Louis, MO, USA) type III (catalogue number not given)
T2 sequence (P07374 whole entry, looked up): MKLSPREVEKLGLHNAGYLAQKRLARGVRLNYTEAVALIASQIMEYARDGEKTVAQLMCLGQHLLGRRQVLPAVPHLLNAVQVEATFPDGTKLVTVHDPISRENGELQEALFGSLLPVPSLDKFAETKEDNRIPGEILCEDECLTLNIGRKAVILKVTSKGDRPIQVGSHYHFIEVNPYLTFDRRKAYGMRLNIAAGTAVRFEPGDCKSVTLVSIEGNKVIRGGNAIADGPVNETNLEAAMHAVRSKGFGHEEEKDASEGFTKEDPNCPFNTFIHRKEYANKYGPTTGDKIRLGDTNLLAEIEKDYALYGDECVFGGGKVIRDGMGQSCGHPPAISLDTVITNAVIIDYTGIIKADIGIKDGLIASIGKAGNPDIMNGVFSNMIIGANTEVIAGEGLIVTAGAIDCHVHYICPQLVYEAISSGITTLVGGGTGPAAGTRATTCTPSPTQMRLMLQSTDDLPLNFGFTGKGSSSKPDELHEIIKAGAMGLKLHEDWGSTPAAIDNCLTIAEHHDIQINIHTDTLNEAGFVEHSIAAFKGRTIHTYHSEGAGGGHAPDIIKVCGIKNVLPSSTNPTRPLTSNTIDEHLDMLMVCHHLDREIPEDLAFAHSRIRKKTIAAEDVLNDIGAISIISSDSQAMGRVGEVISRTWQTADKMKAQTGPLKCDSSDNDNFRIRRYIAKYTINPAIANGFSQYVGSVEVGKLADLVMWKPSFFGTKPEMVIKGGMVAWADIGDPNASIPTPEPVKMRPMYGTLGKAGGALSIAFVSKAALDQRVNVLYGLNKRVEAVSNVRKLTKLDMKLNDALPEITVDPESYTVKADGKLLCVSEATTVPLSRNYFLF
Description: as §1

H. pylori ATCC 43504 = assay: MIC by agar dilution method; assay type: cell-based; settings: Helicobacter pylori
Description: (§2) A total of four H. pylori strains were studied, including three reference strains ATCC 43504, NCTC 26695 and SS1 gifted from Professor Richard Ferrero, Monash University, Australia, and one clinical isolate ICDC 111001 obtained from Professor Zhang Jianzhong, Chinese Center of Disease Control and Prevention. […] The MICs of Pal against the four H. pylori strains were evaluated by using agar dilution method. […] H. pylori strains were harvested and resuspended in PBS (1.0–2.0 McFarland were defined based on the strain properties). […] After 72 h, the MIC values were determined as the lowest concentration at which there was no strain growth judged by visual examination. Metronidazole was used as the positive control. The experiments were evaluated under two different pH (7.4 and 5.3) conditions and repeated twice.

H. pylori NCTC 26695 = assay: MIC by agar dilution method; assay type: cell-based; settings: Helicobacter pylori
Description: as §2

H. pylori SS1 = assay: MIC by agar dilution method; assay type: cell-based; settings: Helicobacter pylori
Description: as §2

[6] = system: H. pylori ICDC 111001 (clinical isolate); assay: MIC by agar dilution method; assay type: cell-based; settings: Helicobacter pylori
Description: as §2

[7] = system: four H. pylori strains (ATCC 43504, NCTC 26695, SS1 and ICDC 111001); assay: MIC by agar dilution method, range over the four strains; assay type: cell-based; settings: Helicobacter pylori, read-out: MIC values against the four H. pylori strains
Description: as §2

jack bean urease (JBU) [8] = target: T2, jack bean urease (JBU); assay: Inhibition kinetic study (Lineweaver-Burk plots); assay type: biochemical; settings: for Lineweaver-Burk plot raw value (reciprocal velocity): Fig 3B JBU
Description: Michaelis constant KM and the maximum velocity vmax values were evaluated by means of Lineweaver—Burk plots, using the initial velocities at different urea concentrations (ranging from 0.3125 to 15 mM), in the absence or presence of 1.00, 0.50, and 0.25 mM Pal. The concentrations of HPU and JBU were both 0.25 mg/mL in the assays. The values were obtained by applying nonlinear regression to the Michaelis-Menten equation. All experiments were performed in triplicate.

COc1cc2c(cc1OC)-c1cc3ccc(OC)c(OC)c3c[n+]1CC2 [Pal, Palmatine]
anti-ulcerogenic activity [1]: better than that of the C. chinensis extract and its active principle berberine
toxicity [2]: minimal
Lineweaver-Burk plot raw value (reciprocal velocity) (H. pylori urease (HPU) [3]; Pal=0.25 mM, 1/urea 0.0333333): 3.3428 and 3.026 and 3.128
Lineweaver-Burk plot raw value (reciprocal velocity) (H. pylori urease (HPU) [3]; Pal=0.25 mM, 1/urea 0.0666667): 3.79 and 3.489 and 3.584
Lineweaver-Burk plot raw value (reciprocal velocity) (H. pylori urease (HPU) [3]; Pal=0.25 mM, 1/urea 0.133333): 4.108 and 3.898 and 3.84
Lineweaver-Burk plot raw value (reciprocal velocity) (H. pylori urease (HPU) [3]; Pal=0.25 mM, 1/urea 0.266667): 4.796 and 4.692 and 4.666
Lineweaver-Burk plot raw value (reciprocal velocity) (H. pylori urease (HPU) [3]; Pal=0.25 mM, 1/urea 0.533333): 6.008 and 5.574 and 5.658
Lineweaver-Burk plot raw value (reciprocal velocity) (H. pylori urease (HPU) [3]; Pal=0.25 mM, 1/urea 1.06667): 7.22 and 6.84 and 7.11
Lineweaver-Burk plot raw value (reciprocal velocity) (H. pylori urease (HPU) [3]; Pal=0.50 mM, 1/urea 0.0333333): 6.847 and 6.4288 and 8.753
Lineweaver-Burk plot raw value (reciprocal velocity) (H. pylori urease (HPU) [3]; Pal=0.50 mM, 1/urea 0.0666667): 7.294 and 6.935 and 7.391
Lineweaver-Burk plot raw value (reciprocal velocity) (H. pylori urease (HPU) [3]; Pal=0.50 mM, 1/urea 0.133333): 8.5 and 7.307 and 9.1701
Lineweaver-Burk plot raw value (reciprocal velocity) (H. pylori urease (HPU) [3]; Pal=0.50 mM, 1/urea 0.266667): 11.3701 and 11.0558
Lineweaver-Burk plot raw value (reciprocal velocity) (H. pylori urease (HPU) [3]; Pal=0.50 mM, 1/urea 0.533333): 13.369 and 12.3993
Lineweaver-Burk plot raw value (reciprocal velocity) (H. pylori urease (HPU) [3]; Pal=0.50 mM, 1/urea 1.06667): 12.1433 and 18.315 and 12.9786
Lineweaver-Burk plot raw value (reciprocal velocity) (H. pylori urease (HPU) [3]; Pal=1.00 mM, 1/urea 0.0333333): 10.7527 and 9.785 and 8.636
Lineweaver-Burk plot raw value (reciprocal velocity) (H. pylori urease (HPU) [3]; Pal=1.00 mM, 1/urea 0.0666667): 12.8452 and 10.5708 and 10.7296
Lineweaver-Burk plot raw value (reciprocal velocity) (H. pylori urease (HPU) [3]; Pal=1.00 mM, 1/urea 0.133333): 12.2775 and 12.7551 and 11.5942
Lineweaver-Burk plot raw value (reciprocal velocity) (H. pylori urease (HPU) [3]; Pal=1.00 mM, 1/urea 0.266667): 16.5017 and 10.1061 and 12.6342
Lineweaver-Burk plot raw value (reciprocal velocity) (H. pylori urease (HPU) [3]; Pal=1.00 mM, 1/urea 0.533333): 22.1239 and 12.1729 and 15.3022
Lineweaver-Burk plot raw value (reciprocal velocity) (H. pylori urease (HPU) [3]; Pal=1.00 mM, 1/urea 1.06667): 26.3505 and 13.2013 and 19.861
type of urease inhibition (H. pylori urease (HPU) [3]; HPU, Lineweaver-Burk): noncompetitive
activity at 500 µM (H. pylori urease (HPU) [4]; 5 min, incubation time 5 min): 54%
activity at 500 µM (H. pylori urease (HPU) [4]; 10 min, incubation time 10 min): 49.3%
activity at 500 µM (H. pylori urease (HPU) [4]; 0.25 h, incubation time 15 min): 49.3%
activity at 500 µM (H. pylori urease (HPU) [4]; 20 min, incubation time 20 min): 31.8%
reversibility of inhibition (H. pylori urease (HPU) [4]; HPU, DTT reactivation assay): reversible
activity at 500 µM (jack bean urease (JBU) [5]; 5 min, incubation time 5 min): 32.2%
activity at 500 µM (jack bean urease (JBU) [5]; 10 min, incubation time 10 min): 20.5%
activity at 500 µM (jack bean urease (JBU) [5]; 0.25 h, incubation time 15 min): 21.6%
activity at 500 µM (jack bean urease (JBU) [5]; 20 min, incubation time 20 min): 30.9%
reversibility of inhibition (jack bean urease (JBU) [5]; JBU, DTT reactivation assay): reversible
MIC (H. pylori ATCC 43504; ATCC43504, pH 5.3, 72 h): 75 µg/mL
MIC (H. pylori ATCC 43504; ATCC43504, pH 7.4, 72 h): 100 µg/mL
MIC (H. pylori NCTC 26695; NCTC26695, pH 5.3, 72 h): 100 µg/mL
MIC (H. pylori NCTC 26695; NCTC26695, pH 7.4, 72 h): 200 µg/mL
MIC (H. pylori SS1; pH 5.3, 72 h): 75 µg/mL
MIC (H. pylori SS1; pH 7.4, 72 h): 100 µg/mL
MIC ([6]; pH 5.3, 72 h): 75 µg/mL
MIC ([6]; pH 7.4, 72 h): 100 µg/mL
MIC ([7]; acidic conditions (pH 5.3)): 75 to 100 µg/mL
MIC ([7]; neutral conditions (pH 7.4)): 100 to 200 µg/mL
Lineweaver-Burk plot raw value (reciprocal velocity) (jack bean urease (JBU) [8]; Pal=0.25 mM, 1/urea 0.0333333): 6.736 and 6.4288 and 6.3593
Lineweaver-Burk plot raw value (reciprocal velocity) (jack bean urease (JBU) [8]; Pal=0.25 mM, 1/urea 0.0666667): 9.843 and 8.358 and 8.117
Lineweaver-Burk plot raw value (reciprocal velocity) (jack bean urease (JBU) [8]; Pal=0.25 mM, 1/urea 0.266667): 12.8949 and 20.429 and 18.9394
Lineweaver-Burk plot raw value (reciprocal velocity) (jack bean urease (JBU) [8]; Pal=0.25 mM, 1/urea 0.533333): 27.5862 and 33.6135 and 34.6021
Lineweaver-Burk plot raw value (reciprocal velocity) (jack bean urease (JBU) [8]; Pal=0.25 mM, 1/urea 1.06667): 85.4701 and 51.1509 and 56.8182
Lineweaver-Burk plot raw value (reciprocal velocity) (jack bean urease (JBU) [8]; Pal=0.50 mM, 1/urea 0.0333333): 6.923 and 7.202 and 9.225
Lineweaver-Burk plot raw value (reciprocal velocity) (jack bean urease (JBU) [8]; Pal=0.50 mM, 1/urea 0.0666667): 8.807 and 9.298 and 11.1669
Lineweaver-Burk plot raw value (reciprocal velocity) (jack bean urease (JBU) [8]; Pal=0.50 mM, 1/urea 0.133333): 18.6916 and 14.9813 and 17.4672
Lineweaver-Burk plot raw value (reciprocal velocity) (jack bean urease (JBU) [8]; Pal=0.50 mM, 1/urea 0.266667): 37.037 and 24.1255 and 22.7273
Lineweaver-Burk plot raw value (reciprocal velocity) (jack bean urease (JBU) [8]; Pal=0.50 mM, 1/urea 0.533333): 57.971 and 34.3053 and 43.4783
Lineweaver-Burk plot raw value (reciprocal velocity) (jack bean urease (JBU) [8]; Pal=1.00 mM, 1/urea 0.0333333): 7.877 and 9.307 and 11.4613
Lineweaver-Burk plot raw value (reciprocal velocity) (jack bean urease (JBU) [8]; Pal=1.00 mM, 1/urea 0.0666667): 11.4679 and 16.2867 and 12.6662
Lineweaver-Burk plot raw value (reciprocal velocity) (jack bean urease (JBU) [8]; Pal=1.00 mM, 1/urea 0.133333): 16.1031 and 22.0507 and 21.7155
Lineweaver-Burk plot raw value (reciprocal velocity) (jack bean urease (JBU) [8]; Pal=1.00 mM, 1/urea 0.266667): 25.0313 and 34.7222 and 40.9836
Lineweaver-Burk plot raw value (reciprocal velocity) (jack bean urease (JBU) [8]; Pal=1.00 mM, 1/urea 0.533333): 40.4858 and 35.0263 and 56.6572
type of urease inhibition (jack bean urease (JBU) [8]; JBU, Lineweaver-Burk): noncompetitive
